Our source for the TGI values is PubChem BioAssay (NCI).

Among the test systems are 786-0 renal; A498 renal; ACHN renal; EKVX NSCLC; HCT-116 colon; HCT-15 colon; K-562 leukemia; MDA-MB-231 breast; MDA-N; NCI-H460 lung; OVCAR-4 ovarian; OVCAR-5 ovarian; SF-539 CNS; SK-MEL-2 melanoma; SK-MEL-28 melanoma; SW-620 colon; UACC-62 melanoma; UO-31 renal; MOLT-4 leukemia; RPMI-8226 leukemia.
Holding throughout (assay): inhibition of tumour cell growth, NCI panel, 48 h

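Growth conditions: 96-well plates. Treatment: test compound, 48 hours, 5 concentrations. Analysis: linear interpolation between bracketing concentrations; unreached endpoints set to highest concentration. TGI: total growth inhibition.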

Regarding `CCO/C=N\c1c(C#N)c(-c2ccc(Cl)cc2)cn1-c1ccc(C)cc1`, the TGI in the experiment on 786-0 renal, in the experiment with A498 renal, in the experiment on ACHN renal, in the experiment on EKVX NSCLC, in the experiment with HCT-116 colon and in the experiment with HCT-15 colon was above 100 µM throughout. For the same molecule, the TGI with K-562 leukemia, in the experiment on MDA-MB-231 breast, in the experiment with MDA-N, in the experiment with NCI-H460 lung, with OVCAR-4 ovarian and with OVCAR-5 ovarian was above 100 µM throughout. Besides, the TGI with SF-539 CNS, in the experiment with SK-MEL-2 melanoma, in the experiment on SK-MEL-28 melanoma, in the experiment on SW-620 colon, in the experiment on UACC-62 melanoma and in the experiment on UO-31 renal was above 100 µM each time.
For `CC(O)c1cc2c(s1)C(=O)c1ccsc1C2=O` (centres undefined), the TGI turned out to be 2.83 µM in the experiment with 786-0 renal; 2.95 µM with A498 renal; 0.267 µM in the experiment with ACHN renal; 0.551 µM in the experiment with EKVX NSCLC; 2.72 µM in the experiment with HCT-116 colon; 0.118 µM in the experiment on HCT-15 colon. In addition, the TGI with K-562 leukemia came to 0.412 µM; with MDA-MB-231 breast it was 0.624 µM; in the experiment on MDA-N, 0.0275 µM; in the experiment with MOLT-4 leukemia, 0.594 µM; with OVCAR-4 ovarian it was 0.533 µM; in the experiment with OVCAR-5 ovarian, 0.3 µM. For the same molecule, the TGI came to 0.416 µM with RPMI-8226 leukemia; 0.158 µM with SF-539 CNS; 0.264 µM in the experiment with SK-MEL-2 melanoma; 0.0328 µM in the experiment with SK-MEL-28 melanoma; 0.511 µM in the experiment with SW-620 colon; 0.0733 µM in the experiment with UACC-62 melanoma. This molecule also yielded a TGI in the experiment on UO-31 renal of 0.413 µM.
Take `CSC1=Nc2ccccc2-c2nc3ccccc3cc2C1`: the TGI in the experiment with 786-0 renal, in the experiment with A498 renal, with ACHN renal, in the experiment with EKVX NSCLC, with HCT-116 colon and with HCT-15 colon was above 100 µM each time. In addition, the TGI with K-562 leukemia, in the experiment with MDA-MB-231 breast, with MDA-N, with MOLT-4 leukemia, with NCI-H460 lung and in the experiment with OVCAR-4 ovarian was above 100 µM each time. The TGI with OVCAR-5 ovarian, in the experiment on SF-539 CNS, with SK-MEL-2 melanoma, in the experiment with SK-MEL-28 melanoma, with UACC-62 melanoma and in the experiment with UO-31 renal was above 100 µM each time.
Turning to `O=C1CCCCCCCCCCC1CCCCCBr` (centres undefined), the TGI is 86 µM with 786-0 renal; 28.2 µM in the experiment on A498 renal; 84 µM in the experiment on ACHN renal; above 100 µM in the experiment with EKVX NSCLC; 45.9 µM in the experiment on HCT-116 colon; 56.8 µM in the experiment on HCT-15 colon. Also, the TGI in the experiment with K-562 leukemia was 34.5 µM; in the experiment with MDA-MB-231 breast it was 45.1 µM; in the experiment on MDA-N it was above 100 µM; in the experiment with MOLT-4 leukemia it was 33.6 µM; in the experiment with NCI-H460 lung it was above 100 µM; in the experiment on OVCAR-4 ovarian, 67.2 µM. The TGI is 67.1 µM with OVCAR-5 ovarian; 59.1 µM in the experiment with SF-539 CNS; 32.4 µM with SK-MEL-2 melanoma; 84.4 µM in the experiment with SK-MEL-28 melanoma; above 100 µM with SW-620 colon; above 100 µM in the experiment with UACC-62 melanoma. The TGI in the experiment with UO-31 renal is 65.9 µM.
As to `CN=c1c2c(c3[nH]c4ccccc4c4cnc1c34)NCCC2=O`, the TGI in the experiment on 786-0 renal, in the experiment with A498 renal, in the experiment on ACHN renal, in the experiment on EKVX NSCLC, in the experiment with HCT-116 colon and in the experiment with HCT-15 colon was above 10 µM throughout. Further, the TGI in the experiment on K-562 leukemia, with MDA-MB-231 breast, with MDA-N, with MOLT-4 leukemia, in the experiment with NCI-H460 lung and in the experiment with OVCAR-4 ovarian was above 10 µM throughout. Besides, the TGI with OVCAR-5 ovarian, with RPMI-8226 leukemia, in the experiment on SF-539 CNS, in the experiment on SK-MEL-2 melanoma, in the experiment with SK-MEL-28 melanoma and with SW-620 colon was above 10 µM throughout. The same molecule came in with a TGI in the experiment with UO-31 renal above 10 µM.
Take `CC1C/C(=C\c2ccc(OC(=O)C(C)(C)C)cc2)C(=O)/C(=C/c2ccc(OC(=O)C(C)(C)C)cc2)C1` (centres undefined): the TGI in the experiment with 786-0 renal, in the experiment on A498 renal, in the experiment with ACHN renal, in the experiment with EKVX NSCLC, in the experiment on HCT-116 colon and in the experiment on HCT-15 colon was above 100 µM each time. In addition, the TGI in the experiment with K-562 leukemia was above 100 µM; with MDA-MB-231 breast it was above 100 µM; in the experiment on MDA-N, above 100 µM; in the experiment with MOLT-4 leukemia, 37.7 µM; with NCI-H460 lung it was above 100 µM; in the experiment with OVCAR-4 ovarian it was above 100 µM. Besides, the TGI in the experiment with OVCAR-5 ovarian, in the experiment on SF-539 CNS, in the experiment on SK-MEL-2 melanoma, in the experiment with SK-MEL-28 melanoma, in the experiment on SW-620 colon and in the experiment on UACC-62 melanoma was above 100 µM each time.
In the case of `Nc1nc(N)c2cc(-c3ccccc3)cnc2n1`, the TGI with 786-0 renal is 21.5 µM; with A498 renal, 28.5 µM; in the experiment on ACHN renal it was 26.3 µM; with EKVX NSCLC it was 45.1 µM; in the experiment with HCT-116 colon it was 17.3 µM; with HCT-15 colon, above 100 µM. Also, the TGI with K-562 leukemia was 17.7 µM; with MDA-MB-231 breast it was 20.4 µM; in the experiment on MDA-N, 25.4 µM; in the experiment with MOLT-4 leukemia, 28.3 µM; in the experiment with NCI-H460 lung, 24.3 µM; with OVCAR-4 ovarian, 35.2 µM. Moreover, the TGI in the experiment with OVCAR-5 ovarian is 27.7 µM; with RPMI-8226 leukemia it was 48.9 µM; in the experiment on SF-539 CNS, 31.1 µM; in the experiment with SK-MEL-2 melanoma, above 100 µM; in the experiment with SK-MEL-28 melanoma, 35 µM; in the experiment with SW-620 colon, 22.9 µM. This molecule gave a TGI in the experiment with UO-31 renal of 25.7 µM.
Take `CC1CN=C(Nc2ccccc2)S1` (centres undefined): the TGI with 786-0 renal, in the experiment with A498 renal, with ACHN renal, in the experiment on EKVX NSCLC, in the experiment with HCT-116 colon and with HCT-15 colon was above 100 µM throughout. In addition, the TGI in the experiment on K-562 leukemia, in the experiment on MDA-MB-231 breast, with MDA-N, in the experiment on MOLT-4 leukemia, in the experiment with NCI-H460 lung and with OVCAR-5 ovarian was above 100 µM in each case. In addition, the TGI with RPMI-8226 leukemia, in the experiment on SF-539 CNS, in the experiment on SK-MEL-2 melanoma, in the experiment with SK-MEL-28 melanoma, with SW-620 colon and in the experiment on UACC-62 melanoma was above 100 µM in each case. This molecule also returned a TGI in the experiment with UO-31 renal above 100 µM.
